According to PubChem BioAssay AID1996:
Converted amounts (≈) assume the structure as drawn. Non-standard residues stand in square brackets, D forms with d. Residues, ends and D or L forms follow the SMILES beside them. ξ: configuration not given here. *: point of attachment. ξN = NC(=O)CC(N)C(=O)O; Boc = CC(C)(C)OC(=O)*

Conditions: buffer; pH 7.4; 200.0 µM

Row | SMILES | solubility kinetic [µg/mL]
1 | COc1ccc(-c2[nH]c3ccccc3c2SCCN)cc1 | 31.9 (≈ 107 µM)
2 | Cc1ccccc1NC(=O)c1cc(-c2ccccc2)n(CCCN2CCOCC2)c1C | 16.3 (≈ 39 µM)
3 | COC(=O)c1ccc(C(=O)OC)c(NC(=O)C2CCCO2)c1 (stereo not drawn) | 45.3 (≈ 147 µM)
4 | COCCNCC(=O)N1CCCCCC1.O=C(O)C(=O)O | > 45.7
5 | Cc1ccc(CN2C(=O)C(=O)N(CC(N)=O)C2=O)cc1 | > 41.3
6 | O=[N+]([O-])c1ccc2nonc2c1Nc1ccccc1 | 0.7 (≈ 2.73 µM)
7 | O=C(c1cn(Cc2ccccc2)c2ccccc12)N1CCCCC1 | 30.6 (≈ 96.1 µM)
8 | CC(OC(=O)c1ccco1)C(=O)NCc1ccc2c(c1)OCO2 (stereo not drawn) | > 47.6
9 | CCC(=NCc1ccco1)c1c(O)n(-c2ccccc2C)c(=O)[nH]c1=O | > 53
10 | Cn1c(=O)c2ccccc2n(CC(=O)NCCC2=CCCCC2)c1=O | 14.6 (≈ 42.8 µM)
11 | Cc1cnc(NC(=O)CCc2ccccc2)s1 | 8.7 (≈ 35.3 µM)
12 | O=C(COc1ccccc1Cl)N1CCCCCCC1 | 31.4 (≈ 111 µM)
13 | CCOCCCNC(=O)C1CCCN1C(=O)Nc1ccccc1[N+](=O)[O-] (stereo not drawn) | > 54.7
14 | Cc1cccc(Cl)c1OCCCn1ccnc1.O=C(O)C(=O)O | 45.4
15 | O=C1Cc2ccccc2C(c2ccc(Cl)cc2)N1 (stereo not drawn) | 30.4 (≈ 118 µM)
16 | CC(=O)COC(=O)c1ccc2noc(-c3ccccc3)c2c1 | 8 (≈ 27.1 µM)
17 | Cc1c(-c2ccc(Br)cc2)[n+](=O)c2c(n1[O-])CCCCC2 | > 52.4
18 | CCOc1ccccc1CN1CCN(C2CCC2)CC1CCO (stereo not drawn) | 39.9 (≈ 125 µM)
19 | O=C1NC(=O)C(c2cccs2)(c2cccs2)N1 | > 39.6
20 | COC(=O)C1CSC(c2ccc(Cl)cc2)N1C(=O)c1ccccc1 (stereo not drawn) | 34.1 (≈ 94.2 µM)
21 | Cc1c(Cl)cccc1NC(=S)NCc1ccc(F)cc1 | 3.7 (≈ 12 µM)
22 | CC(C)c1nc2ccccc2n1CC(O)COC1CCCCC1 (stereo not drawn) | > 47.5

Row | SMILES | solubility kinetic [µg/mL]
23 | CN(C)S(=O)(=O)c1cccc(C(=O)Nc2ccccc2C(=O)NC2CC2)c1 | 47 (≈ 121 µM)
24 | CCOC(=O)CNC(=O)C(CC(N)=O)NC(=O)OC(C)(C)C (stereo not drawn) (Boc-[ξN]-Gly-OEt) | > 47.6
25 | CC1=CCC2C(=O)N(c3ccc(N4CCOCC4)cc3)C(=O)C2C1 (stereo not drawn) | 45.3 (≈ 139 µM)
26 | O=S(=O)(Nc1cccc2ccccc12)c1cccs1 | 5.1 (≈ 17.6 µM)
27 | Cc1ccc2c(CC(=O)NC3CCS(=O)(=O)C3)coc2c1C (stereo not drawn) | > 48.2
28 | COc1ccc(C2=NOC(C(=O)Nc3cccc(O)c3)C2)cc1 (stereo not drawn) | 22.8 (≈ 73 µM)
29 | CC1CCCC(C)N1C(=O)COC(=O)c1cncc(Br)c1 (stereo not drawn) | > 53.3
30 | Cc1cccc2c3c([nH]c12)C(=O)CC(C)(C)S3 | < 0.5
31 | Cc1cc(C)cc(CC2CC(=O)N(c3ccc([N+](=O)[O-])cc3)C2=O)c1 (stereo not drawn) | < 0.4
32 | O=C(O)C1CC=C(Cl)CC1C(=O)NC1CCCCC1 (stereo not drawn) | > 42.9
33 | CC(C)(CCO)NC(=S)NC1CC2C=CC1C2 (stereo not drawn) | > 38.2
34 | Cc1[nH]c(=O)[nH]c(=O)c1S(=O)(=O)Nc1ccc(F)c([N+](=O)[O-])c1 | > 51.6
35 | CN1C(=O)c2cccc3c(S(=O)(=O)N(C)C)ccc1c23 | 14 (≈ 48.2 µM)
36 | Cc1ccc(C(=O)C[n+]2ccccc2)cc1.[I-] | > 50.9
37 | Cc1ccc(CSCC(=O)Nc2ccccc2)cc1 | 33.4 (≈ 123 µM)
38 | CCC(=NCc1cccnc1)c1c(O)n(-c2ccc(C)cc2)c(=O)[nH]c1=O | 31.6 (≈ 86.7 µM)
39 | O=C(OCc1cc(Cl)cc2c1OCOC2)c1cccnc1Cl | 8.5 (≈ 25 µM)
40 | CCN(CC)CCNC(=O)c1ccc(NC(=O)Cc2ccsc2)cc1 | 49.4 (≈ 137 µM)
41 | Cc1nc2ccccc2c2ncccc12 | 22.4 (≈ 115 µM)
42 | COc1ccc(CNC(=O)c2cccnc2)cc1 | > 36.3
43 | CN(CC(=O)NC(=O)Nc1ccccc1F)Cc1ccccc1F | 2.7 (≈ 8.1 µM)
